Data as given in patent publication US11739098B2 (BRISTOL-MYERS SQUIBB COMPANY, priority 2017, dated 2023).

Columns and labels:
Assay type in all cases: cell-based
human TLR9 = molecular target: T1, human TLR9 (Homo sapiens, UniProt Q9NR96); assay: TLR9 inhibition reporter assay (HEK-Blue cells, SEAP reporter, ODN2006 stimulation); conditions: HEK-Blue cells overexpressing human TLR9, SEAP reporter, ODN2006 5 nM
T1 construct: host or cells: HEK-Blue cells (HEK293-derived reporter line)
T1 sequence (Q9NR96 26-1032): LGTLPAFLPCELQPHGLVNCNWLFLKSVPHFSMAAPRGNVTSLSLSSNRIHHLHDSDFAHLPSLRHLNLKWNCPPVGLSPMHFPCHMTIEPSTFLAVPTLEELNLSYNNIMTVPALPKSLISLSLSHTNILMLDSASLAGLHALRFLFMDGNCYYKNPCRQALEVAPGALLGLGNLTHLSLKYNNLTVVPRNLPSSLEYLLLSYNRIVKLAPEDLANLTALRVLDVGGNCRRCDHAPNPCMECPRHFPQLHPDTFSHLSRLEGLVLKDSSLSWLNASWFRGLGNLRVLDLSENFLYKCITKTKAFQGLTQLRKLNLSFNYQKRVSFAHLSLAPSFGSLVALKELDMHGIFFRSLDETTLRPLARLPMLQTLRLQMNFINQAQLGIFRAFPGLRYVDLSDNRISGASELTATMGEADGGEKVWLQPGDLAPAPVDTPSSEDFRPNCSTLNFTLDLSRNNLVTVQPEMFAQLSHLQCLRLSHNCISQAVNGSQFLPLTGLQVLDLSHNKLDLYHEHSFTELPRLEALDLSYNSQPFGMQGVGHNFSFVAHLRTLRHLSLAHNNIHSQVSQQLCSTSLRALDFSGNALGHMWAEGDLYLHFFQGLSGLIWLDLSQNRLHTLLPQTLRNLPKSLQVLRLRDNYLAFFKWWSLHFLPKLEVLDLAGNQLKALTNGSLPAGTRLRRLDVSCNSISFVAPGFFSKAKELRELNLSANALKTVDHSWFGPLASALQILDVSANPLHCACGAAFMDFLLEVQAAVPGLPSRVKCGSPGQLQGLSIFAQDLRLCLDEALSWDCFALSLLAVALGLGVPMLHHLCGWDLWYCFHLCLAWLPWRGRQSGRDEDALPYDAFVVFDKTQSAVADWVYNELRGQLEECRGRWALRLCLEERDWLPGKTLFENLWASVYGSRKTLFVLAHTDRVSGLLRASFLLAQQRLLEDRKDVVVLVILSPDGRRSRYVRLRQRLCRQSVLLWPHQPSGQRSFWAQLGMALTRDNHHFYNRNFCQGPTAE
Outline: (§1)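 HEK-Blue cells overexpressing human TLR7, TLR8 or TLR9 (NF-κB/AP-1-driven SEAP) pre-treated 30 min at room temperature with compound (0.05 nM–50 μM), then stimulated with gardiquimod 7.5 μM (TLR7), R848 15.9 μM (TLR8) or ODN2006 5 nM (TLR9). SEAP read colorimetrically after 22 h at 37 °C; % inhibition calculated.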

human TLR7 = molecular target: T2, human TLR7 (Homo sapiens, UniProt Q9NYK1); assay: TLR7 inhibition reporter assay (HEK-Blue cells, SEAP reporter, gardiquimod stimulation); conditions: HEK-Blue cells overexpressing human TLR7, SEAP reporter, gardiquimod 7.5 μM
T2 construct: host or cells: HEK-Blue cells (HEK293-derived reporter line)
T2 sequence (Q9NYK1 27-1049): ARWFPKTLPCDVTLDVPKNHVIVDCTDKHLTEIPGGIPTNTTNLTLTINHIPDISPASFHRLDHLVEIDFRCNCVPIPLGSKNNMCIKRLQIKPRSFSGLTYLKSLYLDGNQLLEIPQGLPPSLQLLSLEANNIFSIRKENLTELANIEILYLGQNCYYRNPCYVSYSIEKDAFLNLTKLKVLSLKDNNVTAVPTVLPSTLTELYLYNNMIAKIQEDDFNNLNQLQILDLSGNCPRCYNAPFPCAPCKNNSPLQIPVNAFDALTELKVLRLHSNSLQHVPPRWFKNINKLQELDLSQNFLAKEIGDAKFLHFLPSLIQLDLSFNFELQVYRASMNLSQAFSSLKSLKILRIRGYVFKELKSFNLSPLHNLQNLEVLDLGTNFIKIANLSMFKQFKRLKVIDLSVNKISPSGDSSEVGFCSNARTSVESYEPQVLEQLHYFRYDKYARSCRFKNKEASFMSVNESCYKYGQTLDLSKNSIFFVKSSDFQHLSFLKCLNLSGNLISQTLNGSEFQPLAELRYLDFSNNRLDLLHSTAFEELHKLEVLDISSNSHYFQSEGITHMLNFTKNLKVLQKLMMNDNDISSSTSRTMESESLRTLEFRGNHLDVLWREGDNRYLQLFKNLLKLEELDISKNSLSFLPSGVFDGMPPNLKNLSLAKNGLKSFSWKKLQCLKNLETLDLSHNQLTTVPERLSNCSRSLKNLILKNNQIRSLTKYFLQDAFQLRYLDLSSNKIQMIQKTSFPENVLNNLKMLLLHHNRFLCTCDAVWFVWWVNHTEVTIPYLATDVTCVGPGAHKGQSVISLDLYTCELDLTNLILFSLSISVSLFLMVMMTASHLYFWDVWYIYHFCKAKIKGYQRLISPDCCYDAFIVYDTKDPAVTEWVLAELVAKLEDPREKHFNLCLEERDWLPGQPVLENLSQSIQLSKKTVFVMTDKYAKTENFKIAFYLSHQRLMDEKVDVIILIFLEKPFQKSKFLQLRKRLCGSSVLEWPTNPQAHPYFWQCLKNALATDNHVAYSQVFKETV
Outline: as §1

human TLR8 = molecular target: T3, human TLR8 (Homo sapiens, UniProt Q9NR97); assay: TLR8 inhibition reporter assay (HEK-Blue cells, SEAP reporter, R848 stimulation); conditions: HEK-Blue cells overexpressing human TLR8, SEAP reporter, R848 15.9 μM
T3 construct: host or cells: HEK-Blue cells (HEK293-derived reporter line)
T3 sequence (Q9NR97 27-1041): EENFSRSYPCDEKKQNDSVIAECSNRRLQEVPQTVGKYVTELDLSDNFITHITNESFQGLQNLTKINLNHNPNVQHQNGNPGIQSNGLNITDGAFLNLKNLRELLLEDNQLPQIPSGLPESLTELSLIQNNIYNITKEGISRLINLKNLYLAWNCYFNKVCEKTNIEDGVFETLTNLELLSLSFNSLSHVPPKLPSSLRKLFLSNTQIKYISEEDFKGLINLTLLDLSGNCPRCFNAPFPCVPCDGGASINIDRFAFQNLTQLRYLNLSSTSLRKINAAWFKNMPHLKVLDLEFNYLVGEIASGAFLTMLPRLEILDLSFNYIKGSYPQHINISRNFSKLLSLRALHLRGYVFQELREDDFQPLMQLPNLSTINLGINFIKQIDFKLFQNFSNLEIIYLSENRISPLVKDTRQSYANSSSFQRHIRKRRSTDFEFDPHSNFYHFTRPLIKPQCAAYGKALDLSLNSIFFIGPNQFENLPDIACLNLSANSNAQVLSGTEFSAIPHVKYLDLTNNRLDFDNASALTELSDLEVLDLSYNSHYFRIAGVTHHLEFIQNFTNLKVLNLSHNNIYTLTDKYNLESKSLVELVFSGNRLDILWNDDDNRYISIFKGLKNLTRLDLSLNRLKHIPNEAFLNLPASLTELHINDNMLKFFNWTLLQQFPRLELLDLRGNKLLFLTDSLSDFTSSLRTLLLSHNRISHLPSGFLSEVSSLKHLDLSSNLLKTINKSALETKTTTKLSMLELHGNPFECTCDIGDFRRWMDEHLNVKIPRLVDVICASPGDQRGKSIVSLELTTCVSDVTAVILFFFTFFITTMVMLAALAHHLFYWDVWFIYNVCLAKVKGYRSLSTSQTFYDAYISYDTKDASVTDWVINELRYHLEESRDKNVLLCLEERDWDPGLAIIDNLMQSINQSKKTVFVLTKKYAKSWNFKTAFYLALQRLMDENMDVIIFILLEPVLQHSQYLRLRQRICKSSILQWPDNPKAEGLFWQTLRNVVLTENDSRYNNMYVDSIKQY
Outline: as §1

SMILES	IC50 (human TLR9) [nM]	IC50 (human TLR7) [nM]	IC50 (human TLR8) [nM]
CC(C)c1c(-c2ccc3nc(N)cn3c2)[nH]c2ccc(C3CCNCC3)cc12 [Example 116, 6-(3-isopropyl-5-(piperidin-4-yl)-1H-indol-2-yl)imidazo[1,2-a]pyridin-2-amine]	1000 to 50000	100 to 1000	100 to 1000
Cc1c(C2CCNCC2)ccc2[nH]c(-c3ccnc4[nH]ncc34)c(C)c12 [Example 256, 4-(3,4-dimethyl-5-(piperidin-4-yl)-1H-indol-2-yl)-1H-pyrazolo[3,4-b]pyridine]	1000 to 50000	< 100	< 100
Cc1nn2ccc(-c3[nH]c4ccc(C5CCN(CC(=O)N(C)C)CC5)cc4c3C(C)C)cc2c1F [Example 399, 2-(4-(2-(3-fluoro-2-methylpyrazolo[1,5-a]pyridin-5-yl)-3-isopropyl-1H-indol-5-yl)piperidin-1-yl)-N,N-dimethylacetamide]	1000 to 50000	< 100	1000 to 50000
Cc1cn2cc(-c3[nH]c4ccc(C5CCN(C(=O)CC(C)O)CC5)cc4c3C(C)C)c(C)cc2n1 (stereo not drawn) [Example 596, 1-(4-(2-(2,7-dimethylimidazo[1,2-a]pyridin-6-yl)-3-isopropyl-1H-indol-5-yl)piperidin-1-yl)-3-hydroxybutan-1-one]	1000 to 50000	< 100	> 3130
Cc1cc(-c2[nH]c3ccc(C4CCNCC4)cc3c2C(C)C)cn2c(C#N)cnc12 [Example 130, 6-(3-isopropyl-5-(piperidin-4-yl)-1H-indol-2-yl)-8-methylimidazo[1,2-a]pyridine-3-carbonitrile]	1000 to 50000	100 to 1000	< 100
CC(C)c1c(-c2ccn3nncc3c2)[nH]c2ccc(C3CCN(C(=O)CN(C)C)CC3)cc12 [Example 465, 1-(4-(2-([1,2,3]triazolo [1,5-a]pyridin-5-yl)-3-isopropyl-1H-indol-5-yl)piperidin-1-yl)-2-(dimethylamino)ethan-1-one]	1000 to 50000	< 100	100 to 1000
Cc1cc2cc(-c3[nH]c4ccc(C5CCN(C6COC6)CC5)cc4c3C(C)C)ccn2n1 [Example 726, 5-(3-isopropyl-5-(1-(oxetan-3-yl)piperidin-4-yl)-1H-indol-2-yl)-2-methylpyrazolo[1,5-a]pyridine]	> 50000	100 to 1000	> 3130
CNC(=O)CN1CCC(c2ccc3[nH]c(-c4cc(C)c5nccn5n4)c(C(C)C)c3c2)CC1 [Example 448, 2-(4-(3-isopropyl-2-(8-methylimidazo[1,2-b]pyridazin-6-yl)-1H-indol-5-yl)piperidin-1-yl)-N-methylacetamide]	1000 to 50000	< 100	< 100
COc1cc(-c2[nH]c3ccc(C4CCN(CCS(C)(=O)=O)CC4)cc3c2C(C)C)nn2ncnc12 [Example 782, 6-(3-isopropyl-5-(1-(2-(methylsulfonyl)ethyl)piperidin-4-yl)-1H-indol-2-yl)-8-methoxy-[1,2,4]triazolo[1,5-b]pyridazine]	1000 to 50000	< 100	< 100

More lines, now with the values ahead:

IC50 (human TLR9) [nM]	IC50 (human TLR7) [nM]	IC50 (human TLR8) [nM]	SMILES
100 to 1000	100 to 1000	100 to 1000	COc1cc(-c2[nH]c3ccc(C4CCN(C(=O)CN(C)C)CC4)cc3c2C(C)C)cc2nc(C)cn12 [Example 541, 2-(dimethylamino)-1-(4-(3-isopropyl-2-(5-methoxy-2-methylimidazo[1,2-a]pyridin-7-yl)-1H-indol-5-yl)piperidin-1-yl)ethan-1-one]
1000 to 50000	< 100	< 100	Cc1cc2ncnn2nc1-c1[nH]c2ccc(C3CCNCC3)cc2c1C(C)C [Example 31, 6-(3-isopropyl-5-(piperidin-4-yl)-1H-indol-2-yl)-7-methyl-[1,2,4]triazolo[1,5-b]pyridazine]
1000 to 50000	< 100	< 100	Cc1c(-c2[nH]c3ccc(C4CCN(CC(=O)N(C)C)CC4)cc3c2C(C)C)cn2ccnc2c1Cl [Example 415, 2-(4-(2-(8-chloro-7-methylimidazo[1,2-a]pyridin-6-yl)-3-isopropyl-1H-indol-5-yl)piperidin-1-yl)-N,N-dimethylacetamide]
100 to 1000	100 to 1000	100 to 1000	COc1cc(-c2[nH]c3ccc(C4CCNCC4)cc3c2C(C)C)cc2nccn12 [Example 163, 7-(3-isopropyl-5-(piperidin-4-yl)-1H-indol-2-yl)-5-methoxyimidazo[1,2-a]pyridine]
100 to 1000	< 100	< 100	Cc1c(-c2ccnc3[nH]ccc23)[nH]c2ccc(C3CCN(C4CCN(C)CC4)CC3)cc12 [Example 810, 4-(3-methyl-5-(1′-methyl-[1,4′-bipiperidin]-4-yl)-1H-indol-2-yl)-1H-pyrrolo[2,3-b]pyridine]
100 to 1000	< 100	100 to 1000	CC(C)c1c(-c2cnc3nccn3c2)[nH]c2ccc(C3CCN(CC(C)(C)O)CC3)cc12 [Example 761, 1-(4-(2-(imidazo[1,2-a]pyrimidin-6-yl)-3-isopropyl-1H-indol-5-yl)piperidin-1-yl)-2-methylpropan-2-ol]
